In patent US20110190503A1, “Thiazolopyridin-2-yloxy-phenyl and thiazolopyrazin-2-yloxy-phenyl amines as modulators of leukotriene A4 hydrolase” (Janssen Pharmaceutical NV, priority 2008, published 2011):
Where a name gives a salt, the structure may show the parent alone.

Biological target: T1, recombinant human LTA4 hydrolase (rhLTA4H) (Homo sapiens, UniProt P09960)
T1 construct: made in house; host or cells: Spodoptera frugiperda (Sf-9) cells, recombinant baculovirus (pFastBac1)
T1 sequence (P09960 1-611): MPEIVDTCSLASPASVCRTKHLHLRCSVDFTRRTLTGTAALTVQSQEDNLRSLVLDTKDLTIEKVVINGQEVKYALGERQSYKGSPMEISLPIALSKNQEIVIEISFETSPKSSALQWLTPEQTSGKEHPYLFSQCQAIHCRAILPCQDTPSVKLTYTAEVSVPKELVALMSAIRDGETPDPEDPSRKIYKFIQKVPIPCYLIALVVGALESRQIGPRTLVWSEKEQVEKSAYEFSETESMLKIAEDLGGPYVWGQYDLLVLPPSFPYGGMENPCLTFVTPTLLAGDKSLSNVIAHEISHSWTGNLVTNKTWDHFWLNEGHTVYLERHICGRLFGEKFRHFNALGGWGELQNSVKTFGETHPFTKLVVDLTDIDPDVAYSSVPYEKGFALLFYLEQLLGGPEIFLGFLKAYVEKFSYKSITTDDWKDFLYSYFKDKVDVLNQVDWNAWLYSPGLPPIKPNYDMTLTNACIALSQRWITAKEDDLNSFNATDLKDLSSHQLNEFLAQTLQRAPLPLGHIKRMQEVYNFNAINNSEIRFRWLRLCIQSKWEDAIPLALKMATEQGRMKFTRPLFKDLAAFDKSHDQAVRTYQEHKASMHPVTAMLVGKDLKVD
Experiment: Recombinant human LTA4 hydrolase assay for LTA4 hydrolase inhibitor activity
Type: biochemical
Conditions: rhLTA4H, LTA4 substrate, LTB4 by immunoassay; single determination or average; read-out: IC50
How it was run: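 Recombinant human LTA4H from baculovirus-infected Sf-9 cells (10 ng) pre-incubated 10 min at rt with compound (10% DMSO in dilutions), then reacted with free-acid LTA4 for 30 min at rt. LTB4 measured by ELISA; IC50 by nonlinear regression. Values are single determinations or averages.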

Row | IC50 | SMILES
1 | 0.194 µM | Cc1ccnc2nc(Oc3ccc(OCCN4CCC(O)(c5ccccn5)CC4)cc3)sc12 [Example 158, 1-(2-{4-[(7-Methyl[1,3]thiazolo[4,5-b]pyridin-2-yl)oxy]phenoxy}ethyl)-4-pyridin-2-ylpiperidin-4-ol]
2 | 0.157 µM | CC(=O)N1[C@@H]2CC[C@H]1CN(CCc1ccc(Oc3nc4nccc(C)c4s3)cc1)C2 [Example 209, meso-2-(4-{2-[8-Acetyl-3,8-diazabicyclo[3.2.1]oct-3-yl]ethyl}phenoxy)-7-methyl[1,3]thiazolo[4,5-b]pyridine]
3 | 0.176 µM | CCOC(=O)CN(Cc1ccccc1)Cc1ccc(Oc2nc3ncccc3s2)cc1 [Example 273, Ethyl N-benzyl-N-[4-([1,3]thiazolo[4,5-b]pyridin-2-yloxy)benzyl]glycinate]
4 | 0.141 µM | CS(=O)(=O)N[C@@H]1C[C@H]2CC[C@@H](C1)N2Cc1ccc(Oc2nc3ccncc3s2)cc1 [Example 249, meso-N-{(3-exo)-8-[4-([1,3]Thiazolo[5,4-c]pyridin-2-yloxy)benzyl]-8-azabicyclo[3.2.1]oct-3-yl}methanesulfonamide]
5 | 0.891 µM | NC(=O)N1[C@@H]2CC[C@H]1C[C@H](NCc1ccc(Oc3nc4cccnc4s3)cc1)C2 [Example 201, meso-(3-exo)-3-{[4-([1,3]Thiazolo[5,4-b]pyridin-2-yloxy)benzyl]amino}-8-azabicyclo[3.2.1]octane-8-carboxamide]
6 | 0.06 µM | COCC(=O)NC1CCN(Cc2ccc(Oc3nc4ncc(C)cc4s3)cc2)CC1 [Example 216, 2-Methoxy-N-(1-{4-[(6-methyl[1,3]thiazolo[4,5-b]pyridin-2-yl)oxy]benzyl}piperidin-4-yl)acetamide]
7 | 0.135 µM | CC(=O)N(C)[C@@H]1C[C@H]2CC[C@@H](C1)N2Cc1ccc(Oc2nc3cccnc3s2)cc1 [Example 228, meso-N-Methyl-N-{(3-exo)-8-[4-([1,3]thiazolo[5,4-b]pyridin-2-yloxy)benzyl]-8-azabicyclo[3.2.1]oct-3-yl}acetamide]
8 | 0.275 µM | Cc1cnc2nc(Oc3ccc(OCCN4CCC(C(=O)N5CCOCC5)CC4)cc3)sc2c1 [Example 145, 6-Methyl-2-(4-{2-[4-(morpholin-4-ylcarbonyl)piperidin-1-yl]ethoxy}phenoxy)[1,3]thiazolo[4,5-b]pyridine]
9 | 3.74 µM | CC(=O)N1C[C@@H]2C[C@H]1CN2Cc1ccc(Oc2nc3ccc(C)nc3s2)cc1 [Example 118, 2-(4-{[(1S,4S)-5-Acetyl-2,5-diazabicyclo[2.2.1]hept-2-yl]methyl}phenoxy)-5-methyl[1,3]thiazolo[5,4-b]pyridine]
10 | 0.053 µM | CNC(=O)C1CCN(CCOc2ccc(Oc3nc4nccc(C)c4s3)cc2)CC1 [Example 165, N-Methyl-1-[2-({4-[(7-methyl[1,3]thiazolo[4,5-b]pyridin-2-yl)oxy]phenyl}oxy)ethyl]piperidine-4-carboxamide]
11 | 0.006 µM | NC(=O)N1[C@@H]2CC[C@H]1CN(CCc1ccc(Oc3nc4ncccc4s3)cc1)C2 [Example 210, meso-3-{2-[4-([1,3]Thiazolo[4,5-b]pyridin-2-yloxy)phenyl]ethyl}-3,8-diazabicyclo[3.2.1]octane-8-carboxamide hydrochloride]
12 | 1.84 µM | CN1CCN(Cc2ccc(Oc3nc4cccnc4s3)cc2)CCC1=O [Example 207, 4-Methyl-1-[4-([1,3]thiazolo[5,4-b]pyridin-2-yloxy)benzyl]-1,4-diazepan-5-one]
13 | 0.28 µM | O=C1CCCN1C1CCN(CCc2ccc(Oc3nc4cccnc4s3)cc2)CC1 [Example 68, 1-(1-{2-[4-([1,3]Thiazolo[5,4-b]pyridin-2-yloxy)phenyl]ethyl}piperidin-4-yl)pyrrolidin-2-one]
14 | 0.138 µM | Cc1cnc2nc(Oc3ccc(OCCN4CCC(NC(=O)C(C)C)CC4)cc3)sc2c1 [Example 140, 2-Methyl-N-[1-(2-{4-[(6-methyl[1,3]thiazolo[4,5-b]pyridin-2-yl)oxy]phenoxy}ethyl)piperidin-4-yl]propanamide]
15 | 0.16 µM | c1ccc(CC2CCN(CCOc3ccc(Oc4nc5nccnc5s4)cc3)CC2)cc1 [Example 23, 2-{4-[2-(4-Benzylpiperidin-1-yl)ethoxy]phenoxy}[1,3]thiazolo[4,5-b]pyrazine]
16 | 0.35 µM | NC(=O)C1CCN(CCOc2ccc(Oc3nc4cccnc4s3)cc2)CC1 [Example 35, 1-{2-[4-([1,3]Thiazolo[5,4-b]pyridin-2-yloxy)phenoxy]ethyl}piperidine-4-carboxamide]
17 | 0.374 µM | NC(=O)N[C@@H]1C[C@H]2CC[C@@H](C1)N2Cc1ccc(Oc2nc3ccncc3s2)cc1 [Example 200, meso-1-{(3-exo)-8-[4-([1,3]Thiazolo[5,4-c]pyridin-2-yloxy)benzyl]-8-azabicyclo[3.2.1]oct-3-yl}urea]
18 | 0.042 µM | NC(=O)N1[C@@H]2CC[C@H]1CN(Cc1ccc(Oc3nc4ncccc4s3)cc1)C2 [Example 171, meso-3-{[4-([1,3]Thiazolo[4,5-b]pyridin-2-yloxy)phenyl]methyl}-3,8-diazabicyclo[3.2.1]octane-8-carboxamide]
19 | 3.9 µM | OCCCN(CCOc1ccc(Oc2nc3ccncc3s2)cc1)C1CC1 [Example 208, 3-(Cyclopropyl{2-[4-([1,3]thiazolo[5,4-c]pyridin-2-yloxy)phenoxy]ethyl}amino)propan-1-ol]
20 | 0.32 µM | CC(=O)N[C@H]1C[C@H]2CC[C@@H](C1)N2Cc1ccc(Oc2nc3ccncc3s2)cc1 [Example 115, meso-N-{(3-endo)-8-[4-([1,3]Thiazolo[5,4-c]pyridin-2-yloxy)benzyl]-8-azabicyclo[3.2.1]oct-3-yl}acetamide]
21 | 0.919 µM | O=C(O)CN(Cc1ccccc1)Cc1ccc(Oc2nc3ncccc3s2)cc1 [Example 274, N-Benzyl-N-[4-([1,3]thiazolo[4,5-b]pyridin-2-yloxy)benzyl]glycine]
22 | 0.388 µM | O=C(Cc1cccs1)N1CCN(Cc2ccc(Oc3nc4nccnc4s3)cc2)CC1 [Example 173, 2-[(4-{[4-(2-Thienylacetyl)piperazin-1-yl]methyl}phenyl)oxy][1,3]thiazolo[4,5-b]pyrazine]
23 | 0.835 µM | CC(=O)N1CCN(CCc2ccc(Oc3nc4ccncc4s3)cc2)CC1 [Example 176, 2-{4-[2-(4-Acetylpiperazin-1-yl)ethyl]phenoxy}[1,3]thiazolo[5,4-c]pyridine]
24 | 0.66 µM | O=C(O)C1CCN(CCOc2ccc(Oc3nc4cccnc4s3)cc2)CC1 [Example 44, 1-{2-[4-([1,3]Thiazolo[5,4-b]pyridin-2-yloxy)phenoxy]ethyl}piperidine-4-carboxylic acid]
25 | > 10 µM | Cc1ccnc2sc(Oc3ccc(CN4CCCCC4)cc3)nc12 [Example 280, 7-Methyl-2-[4-(piperidin-1-ylmethyl)phenoxy][1,3]thiazolo[5,4-b]pyridine]
26 | 1.16 µM | c1cncc(OC2CCN(Cc3ccc(Oc4nc5ccncc5s4)cc3)CC2)c1 [Example 248, 2-(4-{[4-(Pyridin-3-yloxy)piperidin-1-yl]methyl}phenoxy)[1,3]thiazolo[5,4-c]pyridine]
27 | 0.072 µM | NC(=O)N1C[C@H]2C[C@@H]1CN2Cc1ccc(Oc2nc3ncc(Cl)cc3s2)cc1 [Example 191, (1R,4R)-5-({4-[(6-Chloro[1,3]thiazolo[4,5-b]pyridin-2-yl)oxy]phenyl}methyl)-2,5-diazabicyclo[2.2.1]heptane-2-carboxamide]
28 | 0.26 µM | OC1(c2ccc(Cl)cc2)CCN(CCOc2ccc(Oc3nc4cccnc4s3)cc2)CC1 [Example 39, 4-(4-Chlorophenyl)-1-{2-[4-([1,3]thiazolo[5,4-b]pyridin-2-yloxy)phenoxy]ethyl}piperidin-4-ol]
29 | 0.041 µM | c1cnc2nc(Oc3ccc(OCCNC4CC4)cc3)sc2c1 [Example 139, N-{2-[4-([1,3]Thiazolo[4,5-b]pyridin-2-yloxy)phenoxy]ethyl}cyclopropanamine]
30 | 0.11 µM | c1ccc2c(c1)CN(CCOc1ccc(Oc3nc4ncccc4s3)cc1)C2 [Example 2, 2-{4-[2-(1,3-Dihydro-2H-isoindol-2-yl)ethoxy]phenoxy}[1,3]thiazolo[4,5-b]pyridine]
